Measured values: US20200190043A1, “2-[[5-(TRIFLUOROMETHYL)-1,2,4-OXADIAZOL-3-YL]ARYLOXY](THIO)ACETAMIDES FOR COMBATING PHYTOPATHOGENIC FUNGI” (BASF SE, priority 2017, published 2020)

How the values were obtained:
[1] = tested on: Puccinia recondita; assay: Curative control of brown rust on wheat (glass house trial); assay type: in vivo; settings: 63 ppm active compound, wheat seedlings, untreated plants 80% diseased leaf area
Procedure: (§1) A mixture was prepared of acetone and/or dimethylsulfoxide and the wetting agent/emulsifier Wettol, which is based on ethoxylated alkylphenoles, in a relation (volume) solvent-emulsifier of 99 to 1 was added to the compound to give a total of 5 ml. Water was then added to a total volume of 100 ml. This stock solution was diluted with the described solvent-emulsifier-water mixture to the given concentration. II.3) Curative Control of Brown Rust on Wheat Caused by Puccinia recondita The first two developed leaves of pot-grown wheat seedling were dusted with spores of Puccinia recondita. To ensure the success the artificial inoculation, the plants were transferred to a humid chamber without light and a relative humidity of 95 to 99% and 20 to 24° C. for 24 hours. The next day the plants were cultivated for 3 days in a greenhouse chamber at 20 to 24° C. and a relative humidity between 65 and 70%. Then the plants were sprayed to run-off with an aqueous suspension, containing the concentration of active ingredient or their mixture as described below. The plants could air-dry. Then the trial plants were cultivated for 8 days in a greenhouse chamber at 20 to 24° C. and a relative humidity between 65 and 70%. The extent of fungal attack on the leaves was visually assessed as % diseased leaf area.

[2] = tested on: Puccinia recondita; assay: Preventative control of brown rust on wheat (glass house trial); assay type: in vivo; settings: 63 ppm active compound, wheat seedlings, untreated plants 80% diseased leaf area
Procedure: as §1, with “II.4) Preventative” for “II.3) Curative”, “sprayed to run-off with an aqueous suspension, containing the concentration of active ingredient or their mixture as described below. The next day the plants were inoculated” for “dusted”, “hours.” for “hours. The next day the plants were cultivated for 3 days in a greenhouse chamber at 20 to 24° C. and a relative humidity between 65 and 70%. Then the plants were sprayed to run-off with an aqueous suspension, containing the concentration of active ingredient or their mixture as described below. The plants could air-dry.”, “6” for “8”

CN(C)C(=O)C(F)(F)Oc1ccc(-c2noc(C(F)(F)F)n2)cc1 [I-2]
diseased leaf area [1]: 3% | diseased leaf area [2]: 2%
